Test results taken from ChEMBL document CHEMBL5042556, “Lead Optimization to Advance Protease-Activated Receptor-1 Antagonists in Early Discovery” (J Med Chem, 2022).

Columns and labels:
[1] = target: T1, Proteinase-activated receptor 1 (Homo sapiens, UniProt P25116); assay: Antagonist activity at human PAR-1 expressed in HEK293 cells assessed as reduction in TRAP induced calcium signal at 3 uM by FLIPR analysis; type: functional, cell-based
T1 sequence (P25116 whole entry): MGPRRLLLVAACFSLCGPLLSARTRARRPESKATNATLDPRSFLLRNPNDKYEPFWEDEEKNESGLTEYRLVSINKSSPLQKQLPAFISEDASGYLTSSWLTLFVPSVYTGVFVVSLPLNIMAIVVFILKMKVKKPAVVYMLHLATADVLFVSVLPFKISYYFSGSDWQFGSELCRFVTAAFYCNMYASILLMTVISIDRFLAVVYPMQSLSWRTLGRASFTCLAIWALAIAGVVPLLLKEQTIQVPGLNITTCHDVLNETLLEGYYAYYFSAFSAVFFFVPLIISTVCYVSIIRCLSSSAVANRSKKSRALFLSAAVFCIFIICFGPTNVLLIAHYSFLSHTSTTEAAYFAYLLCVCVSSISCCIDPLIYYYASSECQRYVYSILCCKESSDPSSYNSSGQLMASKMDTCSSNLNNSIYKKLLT

[2] = target: Voltage-gated inwardly rectifying potassium channel KCNH2 (Homo sapiens, UniProt Q12809); assay: Inhibition of [35S]MK-499 binding to hERG expressed in HEK293 cells; type: toxicity, cell-based
[3] = MRT in rat at 0.5 mg/kg, iv; type: ADME, organism-based; conditions: in vivo
[4] = MRT in cynomolgus monkey at 0.3 mg/kg, iv; type: ADME, organism-based, Macaca fascicularis; conditions: in vivo
[5] = MRT in cynomolgus monkey at 0.3 mg/kg, po; type: ADME, organism-based, Macaca fascicularis; conditions: in vivo

Sequence of Voltage-gated inwardly rectifying potassium channel KCNH2 (Q12809 whole entry): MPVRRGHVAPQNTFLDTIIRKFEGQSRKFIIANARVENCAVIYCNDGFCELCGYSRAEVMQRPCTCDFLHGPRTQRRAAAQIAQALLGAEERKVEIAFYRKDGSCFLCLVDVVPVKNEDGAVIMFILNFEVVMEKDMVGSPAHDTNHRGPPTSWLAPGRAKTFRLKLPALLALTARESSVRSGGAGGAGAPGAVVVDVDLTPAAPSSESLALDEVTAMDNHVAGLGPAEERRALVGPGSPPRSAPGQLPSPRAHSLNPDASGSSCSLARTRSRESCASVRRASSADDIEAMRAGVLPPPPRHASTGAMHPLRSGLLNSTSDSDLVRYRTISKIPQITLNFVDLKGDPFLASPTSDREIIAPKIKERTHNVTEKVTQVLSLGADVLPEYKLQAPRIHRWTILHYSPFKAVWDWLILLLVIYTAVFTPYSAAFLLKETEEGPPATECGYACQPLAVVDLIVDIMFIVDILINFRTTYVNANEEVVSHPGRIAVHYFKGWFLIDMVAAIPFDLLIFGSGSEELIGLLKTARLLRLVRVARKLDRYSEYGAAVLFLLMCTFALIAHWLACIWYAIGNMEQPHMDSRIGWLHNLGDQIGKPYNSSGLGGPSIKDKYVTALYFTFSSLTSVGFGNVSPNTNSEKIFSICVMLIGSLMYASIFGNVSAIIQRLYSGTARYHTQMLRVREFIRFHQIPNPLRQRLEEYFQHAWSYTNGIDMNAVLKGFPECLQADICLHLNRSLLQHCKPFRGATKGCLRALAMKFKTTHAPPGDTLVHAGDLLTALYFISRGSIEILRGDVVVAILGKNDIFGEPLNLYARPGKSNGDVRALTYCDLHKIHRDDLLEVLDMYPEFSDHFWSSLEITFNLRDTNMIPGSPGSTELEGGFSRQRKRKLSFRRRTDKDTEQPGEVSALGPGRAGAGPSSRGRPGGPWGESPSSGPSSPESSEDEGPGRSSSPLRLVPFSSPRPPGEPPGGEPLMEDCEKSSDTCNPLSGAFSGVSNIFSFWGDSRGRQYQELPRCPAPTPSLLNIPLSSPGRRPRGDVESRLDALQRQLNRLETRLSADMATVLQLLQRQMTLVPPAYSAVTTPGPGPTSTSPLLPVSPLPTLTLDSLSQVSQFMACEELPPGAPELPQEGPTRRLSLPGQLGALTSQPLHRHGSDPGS

Structure (SMILES) | IC50 [1] [nM] | IC50 [2] [nM] | MRT [3] [h] | MRT [4] [h] | MRT [5] [h]
CNC(=O)N1C[C@H]2[C@H](C)[C@@H](C)[C@H](/C=C/c3ccc(-c4ccccc4C#N)cn3)[C@@H]3[C@@H](C)OC(=O)[C@@]32C1 | 7 | 50000 | – | – | –
CC1=NO[C@@]2(C1)C[C@H]1C(=O)O[C@H](C)[C@H]1[C@@H](c1ccc(-c3cccc(F)c3)cn1)[C@@H]2C | 134 | – | – | – | –
CCOC(=O)N1C[C@H]2[C@H](C)[C@@H](C)[C@H](/C=C/c3ccc(-c4ccccc4C#N)cn3)[C@@H]3[C@@H](C)OC(=O)[C@@]32C1 | 4 | 1600 | – | – | –
C[C@H]1NC(=O)[C@]2(N)CC(F)(F)[C@@H](C)[C@H](/C=C/c3ccc(-c4ccccc4C#N)cn3)[C@H]12 | 6 | 33000 | 2.7 | 38.4 | –
C[C@H]1OC(=O)[C@@H]2CC3(NC(=O)NC3=O)[C@@H](C)[C@H](c3ccc(-c4cccc(F)c4)cn3)[C@H]12 (stereo not given in full) | 178 | – | – | – | –
C[C@H]1OC(=O)[C@]2(O)CC(F)(F)[C@@H](C)[C@H](/C=C/c3ccc(-c4cccc(F)c4)cn3)[C@H]12 | 8 | 29000 | – | – | 68
C[C@@H]1[C@@H](C)[C@@H]2CNC[C@@]23C(=O)O[C@H](C)[C@H]3[C@H]1/C=C/c1ccc(-c2ccccc2C#N)cn1 | 14 | 1300 | – | – | –
